Patent US20240158465A1, “METHOD FOR INDUCING AND DETECTING SOLUBLE LOX-1 (sLOX-1) IN CULTURED BLOOD CLOTS” (GEORGE MASON UNIVERSITY, priority 2022, published 2024)

Experiments:
cultured blood clots = test: sLox-1 shedding into cultured clot serum (ELISA); assay type: cell-based, human; conditions: cultured clot 4 h, 37° C., vs cultured clot without additive, 100 ng/mL LPS, 10 mM bGP
Excerpt: This is the enabling data for beta glycerol phosphate and PMA treated blood clots.
Parallel analysis of IL-8/CXCL8 in the cultured clot serum can be used to document test article cytocompatibility. The absence of IL6 in donor fresh blood can be used to verify there is no sepsis or bacteremia, and lack of IL-6 induction in the cultured clot serum can be used to identify sterile inflammation and test article purity (lack of endotoxin response).
In an embodiment, cultured clots were spiked with LPS by injecting an LPS solution into the vacutainer tube immediately after blood collection and before clot formation. These LPS/cultured clots shed even more sLox-1 into the serum than the paired cultured clots without LPS, in line with the known effect of LPS and downstream mediators (TNF, IL1A) in stimulating Lox-1 expression. (FIG. 2).
In an embodiment, a precision medicine tool is developed that detects Lox-1 induction in an ex vivo thrombus and shedding of soluble Lox-1 (sLox-1) into the serum. The tool consists of a red vacutainer tube with as little as 0.5 mL and more ideally 3 or 4 mL of peripheral whole venous blood, that is placed for 4 hours at 37° C.
The optimized cultured clot system involves placing a red cap vacutainer tube with anionic clot-activator at 37° C. for 4 hours after which serum may be collected. Serum contains a mixture of barrier-reducing and barrier-enhancing factors.

sLox-1 shedding by cells = conditions: previous studies; cited from earlier work
cultured clots [1] = test: CXCL8/IL-8 and IL-6 protein in cultured clot serum; assay type: cell-based, human; conditions: cultured clot 4 h, 37° C.; for CXCL8/IL-8 protein in cultured clot serum: +100 ng/mL LPS or +10 mM bGP
Method: [Key: FB: fresh blood plasma, cC: cultured clot (4 h, 37° C.), Norm: cultured clot under Normoxia, Hyp: cultured clot under Hypoxia, Hep: heparin blood culture (4 h, 37° C.), +LPS: +100 ng/mL lipopolysaccharide, +bGP: +10 mM disodium beta glycerol phosphate].

cultured clots [2] = test: Neutrophil elastase (NE) release to cultured clot serum; assay type: cell-based, human; conditions: cultured clot 4 h 37° C.; +10 mM bGP
Method: FB=fresh blood; FC=fresh clot ([…] RT incubation); cC=cultured clot (4 h 37° C.; +LPS=cC+100 ng/mL LPS; +bGP=cC+10 mM bGP. This is enabling data for using the cultured clot system to screen drugs for the ability to inhibit neutrophil degranulation in an assay that uses minimally modified whole blood, by measuring the level of NE and/or PR3, or other granule factors (myeloperoxidase, cathepsin G, elastase, metalloproteinases, defensins) in treated versus untreated cultured clot serum.

cultured clots [3] = test: RT-PCR of transcript levels in cultured clots; assay type: cell-based, human; conditions: cultured clot 4 h, 37° C.
Method: Lanes: 1. Fresh whole blood (PAXgene); 2. Fresh blood clot (45 min, RT); 3. Cultured clot (4 h, 37° C.); 4. LPS/cultured clot (4 h, 37° C.); 5. Beta-glycerol phosphate cultured clot (4 h, 37° C.); 6. Cultured heparin blood (4 h, 37° C.). OLR1 was induced in all cultured clots (4) and in all cultured clots+LPS ([…]).

endothelial cells = conditions: other studies; cited from earlier work
[4] = test system: heparinized anticoagulated blood; test: Reversal of heparin anticoagulation to form viable cultured blood clots; assay type: cell-based; conditions: 4 hours at 37° C.; chitosan 99% DDA, 3 kDa or 10 kDa
Excerpt: The degree of deacetylation is preferably from 90% to 100% and the molecular weight is preferably at least 3,000 Da and at most 500,000 Da.

[5] = test system: HEK293 human Lox-1 overexpression system; test: sLox-1 production in HEK293 human Lox-1 overexpression system; assay type: cell-based
Excerpt: Thrombin, for example, had no effect on sLox-1 production in our HEK293 human Lox-1 overexpression system. The enzymes responsible for sLox-1 shedding are under intense debate and not yet identified in neutrophils. Close scrutiny of PR3 leads hypothesize it is a novel neutrophil-specific sheddase of sLox-1. PR3 is harbored in azurophilic and secretory granules of neutrophils. Upon release, PR3 associates with the neutrophil cell surface via CD177 in cholesterol-rich lipid rafts where Lox-1 is located. PR3 activity is believed to preserve endothelial barrier function during neutrophil extravasation. […] One study used trypsin digestion during sample preparation. The proposed sLox-1 cleavage motif is missing an aliphatic P1′ residue used by ADAM10 and ADAM17 to recognize a substrate. By contrast, the human Lox-1 cleavage region (QISA87R88QQA) has a very striking match with the PR3 cleavage site in IL-8 (AVLPRSA↓RKEL). […] (Table 5). The published cleavage sites for sLox-1 in bovine and human produce a non-conserved sLox-1 N-terminus, with NH2-Glutamine for human and NH2-Serine for bovine (Table 5). […] Potentially harmful bystander elastase activity of PR3 [73] could be suppressed by high levels of alpha-1 antitrypsin or ceruloplasmin that we detected by LC-MS in plasma and serum.

HPAEC = test: TER assay of endothelial barrier function; assay type: cell-based, human
Excerpt: In FIG. 28 TER assay with HPAEC treated with 0.2 U/mL thrombin, 10% fresh serum, 10% cultured clot serum or 10% LPS/cultured clot serum produced by peripheral blood collected from 4 healthy donors (N=2 tests per condition for donors 1 and 2 and N=1 test per condition for combined samples from donors 3 and 4). Mean ±standard deviation (N=4 thrombin and N=5 for all other conditions).

Question: For `CCCCCCCCCCCCCC(=O)O[C@@H]1[C@@H](C)[C@@]2(O)[C@@H](C=C(CO)C[C@]3(O)C(=O)C(C)=C[C@@H]23)[C@@H]2C(C)(C)[C@]12OC(C)=O` [PMA, phorbol myristate acetate], which “sLox-1 shedding into cultured clot serum” value (cultured blood clots) is on record?
Answer: enhanced

Question: With `O=S(=O)(F)Cc1ccccc1` [PMSF, phenylmethylsulfonyl fluoride] as the molecule, how does the “sLox-1 shedding by exposed cells” value (sLox-1 shedding by cells) read?
Answer: reduced sLox-1 shedding

Question: With `CC(C)C[C@H](CC(=O)NO)C(=O)N[C@@H](Cc1ccc2ccccc2c1)C(=O)N[C@@H](C)C(=O)NCCN` [TAPI-1] as the molecule, how does the “sLox-1 shedding by exposed cells” value (sLox-1 shedding by cells) read?
Answer: reduced sLox-1 shedding

Question: For `O=P([O-])([O-])OC(CO)CO.[Na+].[Na+]` [bGP, disodium beta glycerol phosphate], which “CXCL8/IL-8 protein in cultured clot serum” value (cultured clots [1]) is on record?
Answer: does not alter

Question: And the “sLox-1 shedding into cultured clot serum” value (cultured blood clots)?
Answer: suppressed

Question: And the “sLox-1 shedding into cultured clot serum” value (cultured blood clots; listed as phosphatase inhibitor)?
Answer: inhibited

Question: What about the “neutrophil elastase (NE) release to serum” value (cultured clots [2]) of the same molecule?
Answer: inhibited

Question: And the “CXCL8/IL-8 expression (RT-PCR)” value (cultured clots [3]; 10 mM)?
Answer: without suppressing

Question: What about the “TNF expression (RT-PCR)” value (cultured clots [3]; 10 mM) of the same molecule?
Answer: specifically suppressed

Question: Which “Lox-1 expression in endothelial cells” value (endothelial cells) does the source give for `CC(C)c1nc(N(C)S(C)(=O)=O)nc(-c2ccc(F)cc2)c1/C=C/[C@@H](O)C[C@@H](O)CC(=O)O` [rosuvastatin] here?
Answer: inhibited Lox-1 expression

Question: With lipopolysaccharide [LPS] as the molecule, how does the “IL-6 protein in cultured clot serum” value (cultured clots [1]; +100 ng/mL LPS) read?
Answer: elevated

Question: And the “CXCL8/IL-8 protein in cultured clot serum” value (cultured clots [1])?
Answer: elevated

Question: What about the “sLox-1 shedding into cultured clot serum” value (cultured blood clots) of the same molecule?
Answer: increased

Question: What about the “IL6 expression (RT-PCR)” value (cultured clots [3]) of the same molecule?
Answer: induced

Question: Which “reversal of heparin anticoagulation, forming viable cultured blood clots” value [4] does the source give for protamine here?
Answer: reverse heparin anticoagulation

Question: What does the source list for thrombin?
Answer: sLox-1 production [5]: no effect; effect on endothelial barrier function (HPAEC; 0.6 hours post-stimulation, vs control, fresh serum): transient loss of barrier function; mean normalized resistance at 36 min (HPAEC; HPAEC, 10% serum or 0.2 U/mL thrombin, 36 min, mean ± SD): 0.48±0.03
